Key:
[1] = mouse, in vivo, iv, 1.92 mg/kg
Experimental: Pharmacokinetic studies were conducted by Xenobiotic Laboratories(Plainsboro, NJ). Briefly, male CD-1 mice received a single IV bolus dose of [^14C] CN-105 52 μCi/mg(dose of 1.92 mg/kg, and approximately 100 μCi/kg) by tail vein injection. At 0.083, 0.5, 1, 6, 24, and 48 hours post-dose terminal blood samples were collected from 2 animals per timepoint and plasma was isolated for radiometric analysis.
To assess CNS penetration, quantitative whole body autoradiography(QWBA) analysis was performed and areas of interest in blood and brain were compared. The carcasses were frozen in a dry ice/hexane bath and embedded in low viscosity carboxymethylcellulose for sagittal, 30-μm thick sections of low viscosity carboxymethylcellulose-of mouse carcasses were sectioned. Pharmacokinetic data were generated by non-compartmental PK analysis of total radioactivity concentration vs. time profiles for tissues using WinNonlin(version 6.3, Pharsight Corporation, Mountain View, CA).
Selected tissues and areas of interest(AOI) were analyzed using QWBA. The tissues and AOI were analyzed within AIDA software using a region sampling tool. The following parameters were derived for individual subjects: maximum tissue and plasma concentration(Cmax), time of Cmax(tmax), area under the tissue concentration versus time curve from time zero to the last quantifiable tissue concentration(AUC0-t), area under the tissue concentration versus time curve from time zero to 4 hours(AUC0-4), and the apparent terminal half-life(t½). AUC0-4 was calculated using the linear trapezoidal rule. Results for AOIs are expressed in nanogram equivalents of(^14C) CN-105 per gram of tissue(ng equv./g) and were calculated as follows: ng equiv./g is equal to nCi per gram of tissue per nCi/ng of(^14C) CN-105.

[2] = system: murine closed head injury model (TBI); assay: Rotarod vestibulomotor function after closed head injury; format: in vivo, mouse; conditions: for Rotarod functional performance compared to vehicle: n = 11-12/group
Text: The murine closed head injury model used in this study was previously described. The closed head impact results in injury to selectively vulnerable neurons in cortex and hippocampus, and is associated with vestibulomotor deficits and long term neurocognitive deficits. Although animals do lose body weight, they rapidly regain spontaneous ventilation, righting reflex, and the ability to ambulate. Briefly, 12–14 week-old C57Bl/6 J male mice(Jackson Laboratories, Bar Harbor, ME) were used. The trachea was intubated after anesthesia induction with 4.6% isoflurane and the lungs were mechanically ventilated with 1.6% isoflurane in 30% O2/70% N2. Core body temperature was maintained at 37 °C through a rectal probe. To avoid basilar skull fracture, ear bars are not used. The animal was secured in a stereotactic device in a prone position on a molded acrylic cast with surgical tape across the shoulders. The intubation tube was also secured to the acrylic cast with tape. The acrylic cast is designed to allow the mouse to have 3 mm of space below the head to allow for acceleration/decelaration of the head in this position. The head was shaved and the scalp was incised to expose the skull and identify anatomical landmarks. A concave 3-mm metallic disc was adhered to the skull immediately caudal to bregma. A 2.0-mm diameter pneumatic impactor(Air-Power Inc., High Point, NC) was used to deliver a single midline impact to the center of the disc surface. The impactor was discharged at 6.8 ± 0.2 m/second with a head displacement of 3 mm. After impact, the animals were allowed to recover spontaneous ventilation and then the tracheas were extubated. Mice were allowed free access to food and water. Sham mice were treated identically except for the absence of impact. All mice were housed in the same facility.
CN-105(Ac-VSRRR-amide) was synthesized by Polypeptide Inc.(San Diego, CA) to a purity of >99%, and was delivered in sterile normal saline. […] Vehicle treated animals received intravenous injection of 100 μL of normal saline at the same time points. Animals were assigned to treatment group by a coded study identification number after injury using a paper randomization protocol. A block randomization scheme was used, so that an equal number of animals were randomized to each of the treatment groups during concurrent experiments.
An automated Rotarod(Ugo Basile, Comerio, Italy) was used to assess vestibulomotor function. On the day prior to injury, mice(n = 11–12 mice per group) underwent one training trial at an accelerating rotational speed(4–40 rpm) for at least 200 seconds and then three additional test trials with the same accelerating rotational speed. The average time to fall from the rotating cylinder in the test trials was recorded as baseline latency. Mice were tested on consecutive days post-injury and received three consecutive daily trials with accelerating rotational speed(inter-trial interval = 15 minutes)(n = 10–12 mice). The average latency to fall from the rod was recorded. Mice unable to grasp the rotating rod were given a latency value of 0 seconds.

With Ac-VSRRR-amide [CN-105] the initial plasma half-life [1] was 29 min, the tmax in serum [1] was 5 min and the “tmax in the brain” value [1] was 30 min. For the same substance, the “Rotarod functional performance compared to vehicle” value ([2]; 0.0125 mg/kg iv 2 h after TBI, p = 0.267) was “did not show robust improvement”, the “Rotarod functional performance compared to vehicle” value ([2]; 0.05 mg/kg iv 2 h after TBI, p = 0.011) was “improved functional performance” and the “Rotarod latency compared to vehicle” value ([2]; 0.05 mg/kg iv 4 hours post-injury) was “significant and durable improvement in Rotarod latency”. The “Rotarod functional performance compared to vehicle” value ([2]; 0.2 mg/kg iv 2 h after TBI, p = 0.023) was “improved functional performance”, the “Rotarod functional performance compared to vehicle” value ([2]; 0.8 mg/kg iv 2 h after TBI, p = 0.009) was “improved functional performance” and the “lowest effective dose resulting in improved functional performance” value ([2]; iv 2 h after TBI, Rotarod) was 0.05 mg/kg. For the same substance, the “effect of pretreatment on vestibulomotor and cognitive function” value ([2]; pretreatment 30 minutes prior to TBI, data not shown) was “no additional effects on vestibulomotor and cognitive function”.
